Here are results for one molecule from patent US9675591B2, “Methods for treating seizure disorders and pain” (THE REGENTS OF THE UNIVERSITY OF CALIFORNIA, priority 2013, dated 2017).

Like-named read-outs stand apart in the source and are kept apart here.

The subject of data set [1] is 6-Hz psychomotor seizures. Description: 6-Hz psychomotor seizure test (ASP). It is filed as in vivo, mice. The conditions noted are these: for ED50: Mus musculus, ip, mice. How it is done: Seizures characterized by a minimal clonic phase followed by stereotyped automatistic behaviors (jaw chomping and whisker movement) were induced in mice by a low frequency (6 Hz), long-duration (3 s) stimulus. These seizures resemble automatistic behavior in patients with complex partial seizures. At varying times (0.25, 0.5, 1, 2, and 4 h) after drug treatment, individual mice (four at each time point) were challenged with sufficient current (32 or 44 mA at 6 Hz for 3 s) delivered through corneal electrodes to elicit a psychomotor seizure. Animals not displaying this behavior are considered protected.

The test system of data set [2] is lamotrigine resistant amygdala kindled rats. Kind of data set: Lamotrigine resistant amygdala kindled rats. The data set is classed as in vivo.
Data set [3] in a line: Pharmacokinetics in Sprague-Dawley rats. It is filed as in vivo.
The nature of data set [4]: Plasma protein binding by ultrafiltration. Conditions: rat plasma. It is filed as in vitro ADME. How it is done:
For intravenous application, SKA-19 was dissolved at 5 mg/mL in a mixture of 10% CremophorEL (Sigma-Aldrich, St. Louis, Mo., USA) and 90% phosphate-buffered saline and then injected at 10 mg/kg into the tail vein of Sprague-Dawley rats. At various time points after the injection, ˜100 to 200 μL of blood was collected from a tail nick into EDTA blood sample collection tubes. Plasma was separated by centrifugation and stored at −80° C. pending analysis. For intraperitoneal application SKA-19 was dissolved in Miglyol 812 neutral oil (caprylic/capric triglyceride; Trade name Neobee M5, Spectrum Chemicals, Gardena, Calif., USA) at 2 mg/mL and injected intraperitoneally at 10 and 30 mg/kg. After determining that SKA-19 plasma concentrations peaked 2 h after i.p. application, a group of 3 rats was subjected to cardiac puncture under deep isoflurane anesthesia and then sacrificed before removing brain, heart, liver, spleen and fat. Tissue samples were homogenized in 1 ml of H2O with a Brinkman Kinematica PT 1600E homogenizer and the protein precipitated with 1 ml of acetonitrile. The samples were then centrifuged at 3000 rpm and supernatants concentrated to 1 ml. Plasma and homogenized tissue samples were purified using C18 solid phase extraction cartridges. Eluted fractions corresponding to SKA-19 were dried under nitrogen and reconstituted in acetonitrile. […] Using electrospray ionization MS and selective reaction monitoring (SRM) (capillary temperature 350° C., capillary voltage 4000 V, collision energy −26 eV, positive ion mode), SKA-19 was quantified by its base peak of 182.9 m/z (C7H7N2S2^•+ fragment) and its concentration was calculated with a 9-point calibration curve from 50 nmol/L to 10 μmol/L. The percentage of plasma protein binding for SKA-19 was determined by ultrafiltration. […] The centrifugate (=free SKA-19) was directly analyzed for SKA-19 by UPLC-MS. […]

Data set [5] addresses Nav1.7 (Homo sapiens (Human), UniProt Q15858). Kind of data set: Voltage-clamp, Nav1.7 in HEK-293 cells. It is filed as cell-based. How it is done:
(§1) All experiments were conducted at room temperature (22-24° C.) with an EPC-10 amplifier and Pulse software (HEKA, Lambrecht/Pfalz, Germany) in the whole-cell mode of the patch-clamp technique. Human embryonic kidney (HEK)-293 cell lines stably expressing hNav1.1, hNav1.5, hNav1.7 channels (generously provided by Dr. Christopher Lossin, University of California Davis), hNav1.4 (Frank Lehmann-Horn, University of Ulm), or hKv2.1 channels (James Trimmer, University of California Davis) were bathed in extracellular solution containing (in mM): 160 NaCl; 4.5 KCl; 1 MgCl2; 2 CaCl2; 10 HEPES [pH was adjusted to 7.4 using NaOH (310 mOsm)]. Pipettes were filled with intracellular solution containing (in mM): 145 KF; 2 MgCl2; 10 ethylene glycol tetraacetic acid; 10 HEPES (pH adjusted to 7.2 with KOH; 300 mOsm). Neuroblastoma N1E-115 cells (ATCC, Manassa, Va., USA) expressing Nav1.2 were patched with a CsF internal solution consisting of (in mM): 10 NaF; 110 CsF; 20 CsCl; 2 ethylene glycol tetraacetic acid; 10 HEPES (CsOH to pH 7.35; 300 mOsm). All pipette tip resistances were 2-4 MΩ. Series resistances of 3-10 MΩ were compensated 40-80%. All cells were voltage-clamped to a holding potential of −90 mV unless otherwise specified. The sampling frequency was 5 kHz. Na^+ currents were elicited by 30-ms pulse to 0 mV from −90 mV applied every 10 s. […]

Data set [6] deals with Kv2.1 (Homo sapiens (Human), UniProt Q14721). Description: Voltage-clamp, Kv2.1 in HEK-293 cells. It is filed as cell-based. Conditions: read-out: EC50 or IC50, Kv2.1. Here is the method:
as §1

Kv2.1, sequence (Q14721 whole entry): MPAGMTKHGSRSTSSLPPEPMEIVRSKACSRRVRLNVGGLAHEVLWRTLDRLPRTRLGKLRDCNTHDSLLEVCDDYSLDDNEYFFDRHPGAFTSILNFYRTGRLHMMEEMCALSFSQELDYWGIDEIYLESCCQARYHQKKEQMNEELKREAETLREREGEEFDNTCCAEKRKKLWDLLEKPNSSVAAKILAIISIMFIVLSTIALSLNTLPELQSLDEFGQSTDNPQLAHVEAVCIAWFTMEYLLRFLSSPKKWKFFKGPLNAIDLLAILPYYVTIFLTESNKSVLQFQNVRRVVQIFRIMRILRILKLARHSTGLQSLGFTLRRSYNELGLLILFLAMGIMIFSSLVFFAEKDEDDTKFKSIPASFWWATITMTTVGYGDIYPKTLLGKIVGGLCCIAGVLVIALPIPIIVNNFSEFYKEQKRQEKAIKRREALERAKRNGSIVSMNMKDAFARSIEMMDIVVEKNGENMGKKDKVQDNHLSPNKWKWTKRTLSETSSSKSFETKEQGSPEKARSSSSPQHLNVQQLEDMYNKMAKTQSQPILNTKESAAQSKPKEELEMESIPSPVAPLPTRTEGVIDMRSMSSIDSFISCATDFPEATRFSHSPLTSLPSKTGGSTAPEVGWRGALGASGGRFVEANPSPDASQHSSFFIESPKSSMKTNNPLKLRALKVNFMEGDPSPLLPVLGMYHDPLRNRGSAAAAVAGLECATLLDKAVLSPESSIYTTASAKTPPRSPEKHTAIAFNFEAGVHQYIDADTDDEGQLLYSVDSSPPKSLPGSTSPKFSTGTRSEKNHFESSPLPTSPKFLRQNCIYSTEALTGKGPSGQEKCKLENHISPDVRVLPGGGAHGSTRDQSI
Nav1.7, sequence (Q15858 whole entry): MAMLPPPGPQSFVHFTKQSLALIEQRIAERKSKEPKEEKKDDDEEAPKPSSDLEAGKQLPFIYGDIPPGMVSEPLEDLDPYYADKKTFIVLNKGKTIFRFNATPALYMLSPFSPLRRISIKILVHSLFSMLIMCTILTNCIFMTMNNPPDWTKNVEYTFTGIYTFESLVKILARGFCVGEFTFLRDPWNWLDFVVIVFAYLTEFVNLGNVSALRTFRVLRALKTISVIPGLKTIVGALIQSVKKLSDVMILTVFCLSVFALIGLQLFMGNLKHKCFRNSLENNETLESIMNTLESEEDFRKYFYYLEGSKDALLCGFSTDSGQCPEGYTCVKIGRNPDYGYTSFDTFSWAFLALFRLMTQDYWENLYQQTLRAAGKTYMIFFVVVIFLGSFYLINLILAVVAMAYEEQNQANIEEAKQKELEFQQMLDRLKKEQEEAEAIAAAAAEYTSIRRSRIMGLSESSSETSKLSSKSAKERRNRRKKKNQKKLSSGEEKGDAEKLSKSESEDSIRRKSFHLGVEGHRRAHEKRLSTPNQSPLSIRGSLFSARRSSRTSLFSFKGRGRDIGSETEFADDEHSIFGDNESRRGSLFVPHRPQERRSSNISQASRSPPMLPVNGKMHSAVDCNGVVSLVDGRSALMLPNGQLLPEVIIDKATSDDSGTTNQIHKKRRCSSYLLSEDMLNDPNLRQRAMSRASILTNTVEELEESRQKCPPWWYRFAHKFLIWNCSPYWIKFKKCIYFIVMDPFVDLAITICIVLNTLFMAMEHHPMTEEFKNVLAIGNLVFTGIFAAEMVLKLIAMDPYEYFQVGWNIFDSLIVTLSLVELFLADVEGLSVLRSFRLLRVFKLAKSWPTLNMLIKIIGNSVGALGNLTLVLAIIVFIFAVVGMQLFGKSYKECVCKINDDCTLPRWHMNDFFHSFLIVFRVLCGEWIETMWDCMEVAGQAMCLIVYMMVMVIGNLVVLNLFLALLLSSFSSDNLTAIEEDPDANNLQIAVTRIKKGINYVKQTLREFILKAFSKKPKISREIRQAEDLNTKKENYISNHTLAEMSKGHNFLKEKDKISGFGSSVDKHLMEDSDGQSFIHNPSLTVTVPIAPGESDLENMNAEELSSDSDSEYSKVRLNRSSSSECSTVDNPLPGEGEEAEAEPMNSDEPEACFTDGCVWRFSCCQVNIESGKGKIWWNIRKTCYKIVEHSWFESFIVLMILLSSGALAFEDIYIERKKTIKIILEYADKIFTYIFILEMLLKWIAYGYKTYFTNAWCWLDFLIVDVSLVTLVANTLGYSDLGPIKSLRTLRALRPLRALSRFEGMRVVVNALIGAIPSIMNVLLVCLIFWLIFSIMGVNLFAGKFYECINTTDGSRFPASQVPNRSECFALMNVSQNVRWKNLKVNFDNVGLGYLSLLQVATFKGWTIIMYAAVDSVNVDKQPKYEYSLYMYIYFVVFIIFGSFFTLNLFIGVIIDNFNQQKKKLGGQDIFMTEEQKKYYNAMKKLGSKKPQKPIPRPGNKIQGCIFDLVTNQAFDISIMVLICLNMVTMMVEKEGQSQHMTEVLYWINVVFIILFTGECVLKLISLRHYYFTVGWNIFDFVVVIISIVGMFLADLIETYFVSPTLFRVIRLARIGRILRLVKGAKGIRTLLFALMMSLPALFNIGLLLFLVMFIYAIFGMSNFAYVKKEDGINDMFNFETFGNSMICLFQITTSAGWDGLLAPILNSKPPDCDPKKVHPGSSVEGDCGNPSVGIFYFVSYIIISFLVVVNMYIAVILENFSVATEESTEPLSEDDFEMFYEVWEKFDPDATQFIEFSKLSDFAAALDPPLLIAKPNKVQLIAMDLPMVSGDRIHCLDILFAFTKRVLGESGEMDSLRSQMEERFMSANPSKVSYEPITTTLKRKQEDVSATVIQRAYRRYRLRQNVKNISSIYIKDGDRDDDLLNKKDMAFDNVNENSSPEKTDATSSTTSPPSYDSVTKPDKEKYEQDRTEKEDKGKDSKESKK

For `Nc1nc2ccc(SC(F)(F)F)cc2s1` [SKA-19, 6-((trifluoromethyl)thio)benzo[d]thiazol-2-amine], the “protection in 6-Hz test, initial screen” value is “partial protection” in data set [1] (10 mg/kg i.p., all other tested time points) and “full protection (4 out of 4 animals)” in data set [1] (2 hours after i.p. 10 mg/kg). The ED50 – broadly, the dose that gives a 50% effect, or the effect in half of the subjects – in data set [1] (2 h, 32 mA) amounted to 12.2 mg/kg; in data set [1] (current intensity 44 mA), 28.1 mg/kg. Also, the figures for the rats protected in data set [2] (6 mg/kg) and in data set [2] (50 mg/kg) were 2 out of 8 and 3 out of 7, respectively. In addition, the oral availability result in data set [3] (10 mg/kg, both vehicles (solution and methylcellulose suspension)) was “roughly 30%”; in data set [3] (methylcellulose suspension as used by the ASP), “about 50%”. Also, in data set [3] (2 h after i.p. 10 mg/kg), the “penetration into tissues (brain, heart, spleen, liver)” value is recorded as “very effective at penetrating into tissues”. In data set [3] (gavage 10 mg/kg, suspension in methylcellulose), this molecule came in with a peak plasma concentration of 1.6 ± 0.6 µM. Also, in data set [3] (male, Sprague-Dawley, rat, brain, ip, 10 mg/kg i.p., 2 h, read-out: brain to plasma concentration ratio), the Kp at 2 h is roughly 3. The concentration at 2 h worked out at 4.6 ± 1.3 µM in data set [3] (male, Sprague-Dawley, rat, plasma, intraperitoneal, 10 mg/kg i.p., 2 h, read-out: plasma concentration) and 12 ± 2.21 µM in data set [3] (male, Sprague-Dawley, rat, plasma, intraperitoneal, 30 mg/kg i.p., 2 hours, read-out: total plasma concentration). For the same molecule, the concentration at 4 h in data set [3] (male, Sprague-Dawley, rat, plasma, intraperitoneal, 30 mg/kg i.p., 4 hours, read-out: total plasma concentration) worked out at 13.1 ± 2.67 µM. Further, the half-life in data set [3] (male, Sprague-Dawley, rat, plasma, iv, 10 mg/kg, rats, i.v. 10 mg/kg in cremophor EL/PBS, read-out: elimination half-life t1/2 (converted)) was 2.2 h. In addition, the concentration at 8 h in data set [3] (male, Sprague-Dawley, rat, plasma, oral solution 10 mg/kg, at 8 h) is 0.4 µM. Besides, the plasma concentration result in data set [3] (oral solution 10 mg/kg, for 5 h) is recorded as “around 1 μM”. In addition, the sedation result in data set [3] (rats, 30 mg/kg i.p., recovered without weight loss at 24 h) is listed as “prolonged sedation”. Further, the “elimination half-life t1/2” value in data set [3] (rats, i.v. 10 mg/kg in cremophor EL/PBS) came out at 2.16 ± 0.023 h. The fraction unbound – broadly, the share of the substance not bound to proteins or other matrix – in data set [4] fell in the range of 0.11 to 0.18. In data set [4], this molecule gave a free fraction (fraction unbound) at 15 min of 0.11. In addition, the “unbound (free) fraction” value in data set [4] came to 9.0±0.4%. Moreover, the “block of Nav1.7” value in data set [5] is “low micromolar range”. In data set [6], the half-inhibitory concentration (IC50) (in general, the concentration at which inhibition is half-maximal) was 22.3 ± 5.6 µM.
